In patent publication US9241951B2, “Of gastrointestinal health, immunity and performance by dietary intervention” (BIOATLANTIS LTD, priority 2009, dated 2016):

Assays:
Format in all cases: in vivo, pig
[1] = Faecal pH, dry matter and faeces (diarrhoea) scoring, Example 4
Source text: (§1) One hundred and ninety two piglets were weaned at twenty four days of age, with an initial live weight of 6.4±0.785 Kg and assigned to one of four dietary treatments or 21 days post weaning. The dietary treatments consisted of (T1) basal diet, (T2) basal diet with 300 ppm LAM, (T3) basal diet with 236 ppm FUC, (T4) Basal diet with 300 ppm LAM and 236 ppm FUC. Diets were formulated to have identical concentrations of digestible energy (DE) (16 MJ/Kg) and ileal digestible lysine (14 g/Kg). All amino acid requirements were met relative to lysine (Close, 1994). Chromium III oxide was added to the diets for determination of nutrient digestibility. The LAM and FUC were derived from Laminaria hyperborea.
(§2) Piglets were housed in groups of 4 and offered feed twice daily. Water was supplied ad-libitum. Any pig displaying symptoms of illness was treated appropriately and recorded. Pigs were weighed on day 0 (day of weaning), 7, 14 and 21. Feed intake was monitored weekly. Fresh faecal samples were taken on day 10 and were analysed for E. coli and Lactobacilli concentrations. Faeces samples were collected from each pen on day 12-17 and were retained for chemical analysis. Fresh faecal samples were removed on day 14 and were frozen and retained for volatile fatty acid analysis. Fresh faecal samples were taken on day 17 for pH determination.
A scoring system was applied to indicate its presence and severity. The following scoring system was used: 1=hard, 2=slightly soft, 3=soft, partially formed, 4=loose, semi-liquid and 5=watery, mucous-like.

[2] = tested on: IL-8; experiment: Cytokine gene expression in unchallenged ileum and colon tissue (qPCR), Example 5; conditions: unchallenged ileum or colon tissue; LAM 300, 600 ppm
Experimental: (§3) 21 pigs with an initial weight of 17.9±2.2 Kg were assigned to one of the 3 dietary treatments: (T1) control; (T2) basal diet+300 ppm LAM; (T3) basal diet+600 ppm LAM. Experimental feeding continued for 21 days ad libitum. Diets were formulated to have similar digestible energy (DE) (14.4 MJ/Kg) and ileal digestible lysine (12.5 g/Kg).
(§4) Ileal and colonic tissues was stabilised in RNAlater® solution and stored overnight at 4° C. The following day, RNAlater® was removed and samples were stored at −86° C. prior to RNA extraction.
(§5) Tissue samples for RNA extraction were removed from −86° C. and homogenised. 500 μl of lysis solution/2-ME was added to each sample and these were mechanically disrupted using one 5 mm stainless steel bead per sample. These were then placed in a Tissue Lyser (Qiagen) and lysates were homogenised for 3 mins and transferred to a GenElute Filtration Column (Sigma Aldrich) and RNA was extracted. 1 µg of total RNA was used for cDNA synthesis using oligo(dT)20 primer in a final reaction volume of 20 μl with Superscript™ III First-Strand synthesis system for reverse transcriptase-polymerase chain reaction (RT-PCR) (Invitrogen Life Technologies, Carlsbad, Calif.). At the last step of cDNA synthesis, treatment with E. coli RNase H (Invitrogen Corp.) was performed to digest the remaining RNA/mRNA template, resulting in the production of the single-stranded cDNA template for subsequent qRT-PCR reactions.
(§6) All porcine primers for the cytokine genes interferon gamma (IFN-γ), interleukin-1α (IL-1α), IL-6, IL-8, IL-10, IL-17, tumour necrosis factor (TNF-α), the mucin genes (MUCs 1, 2, 4, 5AC, 12, 13 and 20) and three reference genes, β-actin (ACTB), Glyceraldehyde-3-phosphate dehydrogenase (GAPDH) and Peptidylprolyl isomerase A (PPIA), were designed using Primer Express™ (PE Applied Biosystems, Foster City, Calif.) and synthesised by MWG Biotech (Milton Keynes, UK). These reference genes were previously validated for use in porcine tissue and qPCR was then carried out on the cDNA using the ABI PRISM 7900HT Fast sequence detection system for 96-well plates (Applied Biosystems, Foster City, Calif.). All samples were prepared in duplicate using SYBR Green Fast PCR Master Mix (Applied Biosystems, Foster City, Calif.), cDNA as template and specific primers for the genes selected. For each reaction 5 μl cDNA, 1.2 μl (forward and reverse primer mix, 5 μM), 10 μl Fast SYBR Green PCR Master Mix (PE Applied Biosystems, Foster City, Calif.) was added and made up to a final volume of 20 μl. The two step PCR program was as follows: 95° C. for 10 minutes for 1 cycle followed by 95° C. for 15 seconds and 60° C. for 1 minute for 40 cycles. The raw Ct values for the reference genes were converted to relative quantities using the formula Q=E ^ΔCt where E is the PCR efficiency of the assay and ^ΔCt is the value calculated for the difference between the lowest Ct value for each gene minus the Ct value of the sample in question. The relative quantities of the endogenous controls were then analysed for stability in geNorm (Vandesompele et al., 2002). The stability ‘M’ value generated by the geNorm application for the selected endogenous controls (ACTB, GAPDH and PPIA) indicated their suitability as endogenous controls for these intestinal samples. The geometric mean of the relative quantities for ACTB, GAPDH and PPIA (normalisation factor) was then calculated using geNorm. The relative quantities of each target gene were divided by the normalisation factor (obtained in geNorm) for that sample to give the final normalised relative expression.

[3] = tested on: IL-6; experiment: as above; conditions: unchallenged ileum or colon tissue; LAM 300, 600 ppm
Experimental: as §3, §4, §5, §6

[4] = tested on: IFN-γ; experiment: as above; conditions: unchallenged ileum or colon tissue; LAM 300, 600 ppm
Experimental: as §3, §4, §5, §6

[5] = tested on: IL-10; experiment: as above; conditions: unchallenged ileum or colon tissue; LAM 300, 600 ppm
Experimental: as §3, §4, §5, §6

[6] = tested on: IL-1α; experiment: as above; conditions: unchallenged ileum or colon tissue; LAM 300, 600 ppm
Experimental: as §3, §4, §5, §6

[7] = tested on: TNF-α; experiment: as above; conditions: unchallenged ileum or colon tissue; LAM 300, 600 ppm
Experimental: as §3, §4, §5, §6

[8] = tested on: IL-17; experiment: as above; conditions: unchallenged ileum or colon tissue; LAM 300, 600 ppm
Experimental: as §3, §4, §5, §6

[9] = tested on: Escherichia coli; experiment: Faecal microbiology, Example 4; conditions: LAM diets (300 ppm) v no LAM supplementation (7.84)
Source text: as §1, §2
A sample was serially diluted (1:10) in 9.0 ml aliquots of maximum recovery diluent (MRD, Oxoid, Basingstoke, UK), and spread plated (0.1 ml aliquots) onto selective agars. Lactobacillus spp. were isolated on de Man, Rogosa, Sharp agar (MRS, Oxoid) with overnight incubation at 37° C. in 5% CO2. The API 50 CHL (BioMerieux, France) kit was used to confirm suspect Lactobacilli spp. E. coli species were isolated on MacConkey agar (Oxoid), following aerobic incubation at 37° C. for 18-24 hours. Suspect colonies were confirmed with API 20E (BioMerieux, France).

[10] = Animal performance and nutrient digestibility, Example 5; conditions: increasing LAM 0, 300, 600 ppm, 21 days
Source text: as §3

What does the source list for laminarin?
faecal DM content ([1]; LAM supplemented diets (300 ppm) v unsupplemented (26.24), in % (unit assumed)): 28.64; faecal score ([1]; days 0-21, compared to the basal diet): no effect; faecal score ([1]; days 7-14, scale 1 (hard) to 5 (watery), LAM supplemented diets v 2.57): 2.05; IL-8 gene expression [2]: no effects; IL-6 gene expression [3]: no effects; IFN-γ gene expression [4]: no effects; IL-10 gene expression [5]: no effects; IL-1α gene expression [6]: no effects; TNF-α gene expression [7]: no effects; IL-17 gene expression [8]: no effects; faecal E. coli population [9]: 7.22; nutrient digestibility coefficients (DM, OM, ash, N or GE) [10]: no effect; performance (food intake, daily gain or food conversion ratio) [10]: no effect
